Measurements reported in ChEMBL document CHEMBL1201862, “PubChem BioAssay data set” (2004).
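Test compounds were applied to cells in 96-well plates for 48 hours at 5 doses. At the GI50, growth is halved.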 Calls of active or inactive are those of the source. Rule as the data show it: active = GI50 up to about 1.1 µM and inactive = higher.

Tests used:
Assay in all cases: inhibition of tumour cell growth, NCI panel, 48 h
SK-MEL-28 = tested on: SK-MEL-28
SF-539 = tested on: SF-539
UACC-257 = tested on: UACC-257
COLO 205 = tested on: COLO 205
A549 = tested on: A549
SK-MEL-2 = tested on: SK-MEL-2
A498 = tested on: A498
HOP-62 = tested on: HOP-62
K562 = tested on: K562
SF-295 = tested on: SF-295
SK-MEL-5 = tested on: SK-MEL-5
IGROV-1 = tested on: IGROV-1
MDA-N = tested on: MDA-N
MOLT-4 = tested on: MOLT-4
NCI-H226 = tested on: NCI-H226
LOX IMVI = tested on: LOX IMVI
CAKI-1 = tested on: CAKI-1
SF-268 = tested on: SF-268
SNB-75 = tested on: SNB-75

Compound | GI50 (SK-MEL-28) | GI50 (SF-539) | GI50 (UACC-257) | GI50 (COLO 205) | GI50 (A549) | GI50 (SK-MEL-2) | GI50 (A498) | GI50 (HOP-62) | GI50 (K562) | GI50 (SF-295) | GI50 (SK-MEL-5) | GI50 (IGROV-1) | GI50 (MDA-N) | GI50 (MOLT-4) | GI50 (NCI-H226) | GI50 (LOX IMVI) | GI50 (CAKI-1) | GI50 (SF-268) | GI50 (SNB-75)
O=C1CC[C@@]2(O)[C@H]3Cc4ccc(-c5cccc(O)c5)c5c4[C@@]2(CCN3CC2CC2)[C@H]1O5 | 32.2 µM (inactive) | 18.9 µM (inactive) | 1.01 µM (active) | 21 µM (inactive) | 9.55 µM (inactive) | 1.51 µM (inactive) | 21.3 µM (inactive) | 24.8 µM (inactive) | 21.9 µM (inactive) | 19.8 µM (inactive) | 16.3 µM (inactive) | 23.6 µM (inactive) | 14.6 µM (inactive) | 22.9 µM (inactive) | 29.3 µM (inactive) | 12.9 µM (inactive) | 37.6 µM (inactive) | 22.3 µM (inactive) | –
CCOC(=O)CN1C(=O)C(=O)N(c2ccc(OC)c3ccccc23)C1=O | > 100 µM (inactive) | > 100 µM (inactive) | > 100 µM (inactive) | > 100 µM (inactive) | > 100 µM (inactive) | > 100 µM (inactive) | – | 68.5 µM (inactive) | > 100 µM (inactive) | > 100 µM (inactive) | > 100 µM (inactive) | – | > 100 µM (inactive) | > 100 µM (inactive) | 45.1 µM (inactive) | > 100 µM (inactive) | > 100 µM (inactive) | > 100 µM (inactive) | > 100 µM (inactive)
O=S1(=O)OCCOS(=O)(=O)C1S(=O)(=O)c1ccc2ccccc2c1 | > 100 µM (inactive) | – | > 100 µM (inactive) | > 100 µM (inactive) | > 100 µM (inactive) | > 100 µM (inactive) | – | > 100 µM (inactive) | > 100 µM (inactive) | > 100 µM (inactive) | > 100 µM (inactive) | > 100 µM (inactive) | > 100 µM (inactive) | > 100 µM (inactive) | – | > 100 µM (inactive) | > 100 µM (inactive) | – | –
Oc1ccc(-c2nc3cc(F)ccc3s2)cc1 | 21.6 µM (inactive) | – | 27.4 µM (inactive) | 18.6 µM (inactive) | 18.4 µM (inactive) | 19.1 µM (inactive) | – | 24.7 µM (inactive) | 22.6 µM (inactive) | 19.6 µM (inactive) | 19.5 µM (inactive) | 17.5 µM (inactive) | 28.4 µM (inactive) | 10.4 µM (inactive) | 17.3 µM (inactive) | 17.9 µM (inactive) | 23.7 µM (inactive) | 26.7 µM (inactive) | –
O=NNc1cnc(O)nc1O | > 100 µM (inactive) | > 100 µM (inactive) | > 100 µM (inactive) | > 100 µM (inactive) | > 100 µM (inactive) | > 100 µM (inactive) | 92.7 µM (inactive) | > 100 µM (inactive) | > 100 µM (inactive) | > 100 µM (inactive) | > 100 µM (inactive) | 52.4 µM (inactive) | > 100 µM (inactive) | > 100 µM (inactive) | > 100 µM (inactive) | > 100 µM (inactive) | > 100 µM (inactive) | – | 8.75 µM (inactive)
Cc1cn(C2CC(N(O)C(N)=O)C(CO)O2)c(=O)[nH]c1=O (configuration not stated) | > 100 µM (inactive) | > 100 µM (inactive) | – | > 100 µM (inactive) | > 100 µM (inactive) | > 100 µM (inactive) | > 100 µM (inactive) | > 100 µM (inactive) | > 100 µM (inactive) | > 100 µM (inactive) | > 100 µM (inactive) | – | > 100 µM (inactive) | > 100 µM (inactive) | – | – | > 100 µM (inactive) | > 100 µM (inactive) | –
